experiment: recombinant barcode read abundance after kanamycin selection (control-corrected) (log10(CPM+1)); higher = more efficient recombination; sequences stand for … in AGTGCAGAGAAAATCGGCCAGTTTTCTCTGCCTGCAGTCCGCATGCCGT…AGATTTATGCAGCGGACTGCCTTTCTCCCAAAGTGATAAACCGGACAGTATCATGGACCGGTTTTCCCGGTAATCCGTATTTGCAAGGTTGGTTTCACT; site = the 11-nt target
Outline: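 A promoter, a target, a barcode and the first 104 bridge RNA bases under J23119 made up each oligo. Oligos were Gibson-cloned into a vector bearing the other 73 bp and a T7-inducible recombinase, then co-electroporated into E. coli with a donor plasmid and plated in duplicate on chloramphenicol/ampicillin LB agar (control) or chloramphenicol/ampicillin/kanamycin with 0.1 mM IPTG. Recombination efficiency is the averaged, control-corrected counts per million of recombinant-junction barcodes. Reported values are log10(CPM+1).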
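Also: IS621 recombinase and bridge RNA in Escherichia coli cells.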

Point of comparison: “CGATTACCTTGGGTTCTAACCTGTTGCCT (site CGATTAGCTAG)”, “recombinant barcode read abundance (log10)” value 0.38. Against it:
- CGAGTGACTTGGGTTCTAACCTGTTGCAG (site CGAGTGACTCT) — higher, 1.32
- CGATGGACTTGGGTTCTAACCTGTTGCCG (site CAATGGGCTCG) — lower, 0.102
- CGATGGACTTGGGTTCTAACCTGTTGCCG (site CGATGGACTCG) — higher, 0.956
- CGATGTCCTTGGGTTCTAACCTGTTGCCT (site CGATGTCCTAG) — higher, 0.864
- CGATGTCCTTGGGTTCTAACCTGTTGCCT (site CGATGTGCTAG) — lower, 0.039
- CGATTACCTTGGGTTCTAACCTGTTGCCT (site CGATTAACTAG) — lower, 0.0753
- CGATTACCTTGGGTTCTAACCTGTTGCCT (site CGATTACCTAG) — within 0.2 log units, 0.264
- CGATTACCTTGGGTTCTAACCTGTTGCCT (site CGATTATCTAG) — lower, 0.11
- CGATTAGCTTGGGTTCTAACCTGTTGCCT (site CGATTAACTAG) — lower, 0.161
- CGATTAGCTTGGGTTCTAACCTGTTGCCT (site CGATTACCTAG) — lower, 0.038
- CGATTAGCTTGGGTTCTAACCTGTTGCCT (site CGATTAGCTAG) — lower, 0.169
- CGATTAGCTTGGGTTCTAACCTGTTGCCT (site CGATTATCTAG) — within 0.2 log units, 0.186
- CGCACGTCTTGGGTTCTAACCTGTTGCTT (site CACAAGTCTAA) — within 0.2 log units, 0.185
- CGCACGTCTTGGGTTCTAACCTGTTGCTT (site CGCACGTCTAA) — lower, 0.0911
- CGCCACACTTGGGTTCTAACCTGTTGCCT (site CGACACACTAG) — within 0.2 log units, 0.426
- CGCCACACTTGGGTTCTAACCTGTTGCCT (site CGCCACACTAG) — within 0.2 log units, 0.296
- CGCCACACTTGGGTTCTAACCTGTTGCCT (site CGGCACACTAG) — higher, 0.689
- CGCCACACTTGGGTTCTAACCTGTTGCCT (site CGTCACACTAG) — higher, 1.22
- CGCCGAACTTGGGTTCTAACCTGTTGCCT (site AGCCGAACTAG) — lower, 0.0619
- CGCCGAACTTGGGTTCTAACCTGTTGCCT (site CGCCGAACTAG) — lower, 0.0225
- CGCCGAACTTGGGTTCTAACCTGTTGCCT (site GGCCGAACTAG) — within 0.2 log units, 0.339
- CGCCGAACTTGGGTTCTAACCTGTTGCCT (site TGCCGAACTAG) — lower, 0.0386
- CGCCTGCCTTGGGTTCTAACCTGTTGCCT (site CGCCAGCCTAG) — lower, 0.119
- CGCCTGCCTTGGGTTCTAACCTGTTGCCT (site CGCCTGCCTAG) — lower, 0.113
- CGCCTTCCTTGGGTTCTAACCTGTTGCAT (site CGCCATCCTAT) — lower, 0.121
- CGCCTTCCTTGGGTTCTAACCTGTTGCAT (site CGCCCTCCTAT) — lower, 0.157
- CGCCTTCCTTGGGTTCTAACCTGTTGCAT (site CGCCGTCCTAT) — lower, 0.0857
- CGCCTTCCTTGGGTTCTAACCTGTTGCAT (site CGCCTTCCTAT) — lower, 0.0767
- CGCGCAGCTTGGGTTCTAACCTGTTGCCT (site CGAGCAGCTAG) — within 0.2 log units, 0.382
- CGCGCAGCTTGGGTTCTAACCTGTTGCCT (site CGCGCAGCTAG) — within 0.2 log units, 0.267
- CGCGCAGCTTGGGTTCTAACCTGTTGCCT (site CGGGCAGCTAG) — lower, 0.135
- CGCGCAGCTTGGGTTCTAACCTGTTGCCT (site CGTGCAGCTAG) — within 0.2 log units, 0.416
- CGCGTAACTTGGGTTCTAACCTGTTGCCT (site CGCGCAACTAG) — lower, 0.112
- CGCGTAACTTGGGTTCTAACCTGTTGCCT (site CGCGTAACTAG) — lower, 0.123
- CGCTCCTCTTGGGTTCTAACCTGTTGCAT (site CGCTCCTCTAT) — lower, 0
- CGCTCCTCTTGGGTTCTAACCTGTTGCAT (site GCTCGACCTCA) — lower, 0.177
- CGCTCCTCTTGGGTTCTAACCTGTTGCCT (site AGCTCCTCTAG) — lower, 0.0659
- CGCTCCTCTTGGGTTCTAACCTGTTGCCT (site CGCTCCTCTAG) — lower, 0.027
- CGCTCCTCTTGGGTTCTAACCTGTTGCCT (site GGCTCCTCTAG) — lower, 0.0456
- CGCTCCTCTTGGGTTCTAACCTGTTGCCT (site TGCTCCTCTAG) — lower, 0.103
- CGCTGACCTTGGGTTCTAACCTGTTGCCT (site CGCTGACCTAG) — lower, 0.0666
- CGCTGACCTTGGGTTCTAACCTGTTGCCT (site GCAACCTCTTA) — lower, 0.11
